Data taken from ChEMBL document CHEMBL1681695, “Chroman and tetrahydroquinoline ureas as potent TRPV1 antagonists” (Bioorg Med Chem Lett, 2011).

Tests used:
[1] = target: Transient receptor potential cation channel subfamily V member 1 (Homo sapiens, UniProt Q8NER1); experiment: Antagonist activity at human TRPV1 assessed as inhibition of calcium influx; type: functional
[2] = Ratio of drug uptake in brain to plasma in rat; type: ADME
Rattus norvegicus [3] = experiment: Analgesic activity in rat assessed as inhibition of capsaicin-induced acute pain at 30 umol/kg, po; type: functional
Rattus norvegicus [4] = experiment: Antihyperalgesic activity in po dosed rat assessed as inhibition of carrageenan-induced hyperalgesia; type: functional
Rattus norvegicus [5] = experiment: Antihyperalgesic activity in po dosed rat assessed as inhibition of CFA-induced hyperalgesia; type: functional
Rattus norvegicus [6] = experiment: Analgesic activity in rat assessed as inhibition of MIA-induced osteoarthritis pain at 30 umol/kg, po; type: functional
CYP3A4 = CYP3A4 (Homo sapiens, UniProt P08684); experiment: Inhibition of CYP3A4 at 10 uM; type: ADME
CYP3A4, sequence (P08684 whole entry): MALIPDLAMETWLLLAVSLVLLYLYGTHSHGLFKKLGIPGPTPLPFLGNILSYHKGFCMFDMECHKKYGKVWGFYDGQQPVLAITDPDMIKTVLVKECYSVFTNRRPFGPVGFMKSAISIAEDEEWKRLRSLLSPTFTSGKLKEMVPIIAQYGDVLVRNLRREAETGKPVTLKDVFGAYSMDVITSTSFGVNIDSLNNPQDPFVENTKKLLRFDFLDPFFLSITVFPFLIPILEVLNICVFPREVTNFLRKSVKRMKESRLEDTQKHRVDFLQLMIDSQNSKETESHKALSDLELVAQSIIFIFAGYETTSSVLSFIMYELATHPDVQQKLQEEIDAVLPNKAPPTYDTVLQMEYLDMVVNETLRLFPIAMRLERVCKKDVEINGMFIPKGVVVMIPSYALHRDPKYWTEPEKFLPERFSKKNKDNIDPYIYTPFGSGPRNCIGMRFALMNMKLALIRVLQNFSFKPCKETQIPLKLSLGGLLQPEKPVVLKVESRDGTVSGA

Transient receptor potential cation channel subfamily V member 1, sequence (Q8NER1 whole entry): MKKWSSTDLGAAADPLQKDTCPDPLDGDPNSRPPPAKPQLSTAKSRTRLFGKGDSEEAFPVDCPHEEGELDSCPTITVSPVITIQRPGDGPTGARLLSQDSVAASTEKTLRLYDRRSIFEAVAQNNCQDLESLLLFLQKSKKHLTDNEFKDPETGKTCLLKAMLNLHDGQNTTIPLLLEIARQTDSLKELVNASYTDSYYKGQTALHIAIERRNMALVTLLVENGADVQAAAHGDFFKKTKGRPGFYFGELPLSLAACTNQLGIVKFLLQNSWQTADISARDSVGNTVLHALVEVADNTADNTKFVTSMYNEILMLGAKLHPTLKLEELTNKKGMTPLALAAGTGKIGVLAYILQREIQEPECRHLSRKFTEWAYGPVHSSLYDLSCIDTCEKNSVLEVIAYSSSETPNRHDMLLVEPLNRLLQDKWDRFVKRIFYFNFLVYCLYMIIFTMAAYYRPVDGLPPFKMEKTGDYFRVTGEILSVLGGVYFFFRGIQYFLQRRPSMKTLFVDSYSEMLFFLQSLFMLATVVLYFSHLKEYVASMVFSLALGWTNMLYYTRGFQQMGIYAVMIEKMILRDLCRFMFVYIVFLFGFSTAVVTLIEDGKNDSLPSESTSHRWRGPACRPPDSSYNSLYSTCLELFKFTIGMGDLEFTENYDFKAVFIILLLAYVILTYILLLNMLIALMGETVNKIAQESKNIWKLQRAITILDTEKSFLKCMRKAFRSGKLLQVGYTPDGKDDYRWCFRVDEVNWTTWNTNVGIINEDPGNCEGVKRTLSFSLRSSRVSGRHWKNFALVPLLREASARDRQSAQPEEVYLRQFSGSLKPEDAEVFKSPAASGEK

Compound	IC50 [1] [nM]	also measured
CN1CCC(NC(=O)Nc2cccc3[nH]ncc23)c2cc(C(C)(C)C)ccc21 (stereo unspecified)	853	–
O=C(Nc1cccc2[nH]ncc12)NC1CCOc2c(C3CCCCC3)cccc21 (stereo unspecified)	15	–
O=C(Nc1cccc2[nH]ncc12)NC1CCOc2c1cccc2N1CCOCC1 (stereo unspecified)	110	–
O=C(Nc1cccc2[nH]ncc12)NC1CCOc2cc(OC(F)(F)F)ccc21 (stereo unspecified)	8	–
CC(C)(C)c1ccc2c(c1)OCCC2NC(=O)Nc1cccc2[nH]ncc12 (stereo unspecified)	43	–
O=C(Nc1cccc2[nH]ncc12)NC1CCOc2c1cccc2C(F)(F)F (stereo unspecified)	5	–
O=C(Nc1cccc2[nH]ncc12)NC1CCOc2c(OC(F)(F)F)cccc21 (stereo unspecified)	5	–
CC(C)(C)c1cccc2c1OCCC2NC(=O)Nc1cccc2[nH]ncc12 (stereo unspecified)	5	Kp [2]: 0.42; inhibition in vivo at 30 µmol/kg (Rattus norvegicus [3]): 89%; ED50 (Rattus norvegicus [4]): 10 µmol/kg; ED50 (Rattus norvegicus [5]): 15 µmol/kg; inhibition in vivo at 30 µmol/kg (Rattus norvegicus [6]): 56%
O=C(Nc1cccc2[nH]ncc12)NC1CCOc2c1cccc2N1CCCCC1 (stereo unspecified)	16	–
Cc1ccc2c(c1)C(NC(=O)Nc1cccc3[nH]ncc13)CCO2 (stereo unspecified)	933	–
O=C(Nc1cccc2[nH]ncc12)NC1CCOc2ccc(F)cc21 (stereo unspecified)	718	–
O=C(Nc1cccc2[nH]ncc12)NC1CCOc2ccccc21 (stereo unspecified)	234	–
CN1CCC(NC(=O)Nc2cccc3[nH]ncc23)c2ccccc21 (stereo unspecified)	215	inhibition at 10 µM (CYP3A4): 65%
CN1CCC(NC(=O)Nc2cccc3[nH]ncc23)c2ccc(F)cc21 (stereo unspecified)	34	inhibition at 10 µM (CYP3A4): 66%
CN1CCC(NC(=O)Nc2cccc3[nH]ncc23)c2cccc(C(C)(C)C)c21 (stereo unspecified)	6	–
CN1CCC(NC(=O)Nc2cccc3[nH]ncc23)c2ccc(C(C)(C)C)cc21 (stereo unspecified)	115	–
COc1ccc2c(c1)C(NC(=O)Nc1cccc3[nH]ncc13)CCN2C (stereo unspecified)	1380	inhibition at 10 µM (CYP3A4): 59%
O=C(Nc1cccc2[nH]ncc12)NC1CCN(Cc2ccccc2)c2ccccc21 (stereo unspecified)	70	inhibition at 10 µM (CYP3A4): 94%
O=C(Nc1cccc2[nH]ncc12)NC1CCN(Cc2ccccc2)c2ccc(F)cc21 (stereo unspecified)	66	–
CC(C)(C)c1ccc2c(c1)C(NC(=O)Nc1cccc3[nH]ncc13)CCN2Cc1ccccc1 (stereo unspecified)	121	–
COc1ccc2c(c1)C(NC(=O)Nc1cccc3[nH]ncc13)CCN2Cc1ccccc1 (stereo unspecified)	160	inhibition at 10 µM (CYP3A4): 97%
COc1ccc2c(c1)C(NC(=O)Nc1cccc3[nH]ncc13)CCN2CC1CCCCC1 (stereo unspecified)	196	inhibition at 10 µM (CYP3A4): 93%
CC(C)CCN1CCC(NC(=O)Nc2cccc3[nH]ncc23)c2cccc(Cl)c21 (stereo unspecified)	11	–
O=C(Nc1cccc2[nH]ncc12)N[C@@H]1CCOc2cc(C(F)(F)F)ccc21	4	–
O=C(Nc1cccc2[nH]ncc12)N[C@H]1CCOc2cc(C(F)(F)F)ccc21	43	–
CC(C)(C)c1ccc2c(c1)OCC[C@H]2NC(=O)Nc1cccc2[nH]ncc12	31	–
CC(C)(C)c1ccc2c(c1)OCC[C@@H]2NC(=O)Nc1cccc2[nH]ncc12	1200	–
CC(C)(C)c1cccc2c1OCC[C@H]2NC(=O)Nc1cccc2[nH]ncc12	3	–
CC(C)(C)c1cccc2c1OCC[C@@H]2NC(=O)Nc1cccc2[nH]ncc12	19	–
CN1CCC(NC(=O)Nc2cccc3[nH]ncc23)c2ccc(C(F)(F)F)cc21 (stereo unspecified)	–	inhibition at 10 µM (CYP3A4): 47%
